Calls of active or inactive are those of the source. The rule behind the calls is not given here. Where only a bound is given, the exact number is not on record here.

Experiment [1] deals with T1, Prostaglandin G/H synthase 1 (Ovis aries, UniProt P05979).
T1 sequence (P05979 whole entry): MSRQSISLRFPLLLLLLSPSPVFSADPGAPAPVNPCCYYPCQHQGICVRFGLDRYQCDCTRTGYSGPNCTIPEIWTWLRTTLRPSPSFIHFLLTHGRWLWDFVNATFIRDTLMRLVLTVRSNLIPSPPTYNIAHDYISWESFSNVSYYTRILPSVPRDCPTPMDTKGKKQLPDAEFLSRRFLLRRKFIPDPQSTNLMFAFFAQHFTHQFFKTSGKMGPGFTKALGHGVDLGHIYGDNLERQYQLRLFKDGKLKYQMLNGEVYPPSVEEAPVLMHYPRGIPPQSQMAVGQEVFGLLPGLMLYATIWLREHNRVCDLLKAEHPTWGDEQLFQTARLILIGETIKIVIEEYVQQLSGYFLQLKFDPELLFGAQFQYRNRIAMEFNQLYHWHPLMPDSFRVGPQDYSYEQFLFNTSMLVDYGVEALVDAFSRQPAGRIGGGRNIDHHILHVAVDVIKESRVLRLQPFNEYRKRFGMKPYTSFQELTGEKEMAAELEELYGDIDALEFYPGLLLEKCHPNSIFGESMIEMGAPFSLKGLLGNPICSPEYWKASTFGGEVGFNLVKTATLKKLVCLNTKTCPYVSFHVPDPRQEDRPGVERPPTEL
In words: Inhibition of ovine COX1 by colorimetric analysis.

Another experiment addresses Carbonic anhydrase 1 (Homo sapiens, UniProt P00915). In words: Inhibition of human CA1 by stopped-flow carbon dioxide hydration assay.
For a further experiment, the system named is A549. In words: Antiproliferative activity against human A549 cells assessed as inhibition of cell growth at 100 microM measured after 72 hrs by SRB assay. The experiment is classed as functional. (In general: Sulforhodamine B stains cellular protein and so reports cell mass.)
The test system of a further experiment is HepG2. In words: Antiproliferative activity against human HepG2 cells assessed as inhibition of cell growth at 100 microM measured after 72 hrs by SRB assay. The experiment is classed as functional.
The test system of a further experiment is WI-38. In words: Cytotoxicity against human WI-38 cells assessed as reduction in cell viability after 72 hrs by SRB assay. The experiment is classed as cell-based. The conditions noted are these: WI-38, 72 h.
A short description of experiment [2]: Inhibition of soya bean 15-LOX. Also on record: species or system Glycine max.
Another experiment addresses Carbonic anhydrase 12 (Homo sapiens, UniProt O43570). In words: Inhibition of human CA12 by stopped-flow carbon dioxide hydration assay.
A further experiment relates to MCF7. Put plainly: Antiproliferative activity against human MCF-7 cells assessed as inhibition of cell growth at 100 microM measured after 72 hrs by SRB assay. The experiment is classed as functional.
The target of another experiment is Carbonic anhydrase 9 (Homo sapiens, UniProt Q16790). In words: Inhibition of human CA9 by stopped-flow carbon dioxide hydration assay.
The target in the next experiment is Carbonic anhydrase 2 (Homo sapiens, UniProt P00918). Put plainly: Inhibition of human CA2 by stopped-flow carbon dioxide hydration assay.

Sequence of Carbonic anhydrase 1 (P00915 whole entry): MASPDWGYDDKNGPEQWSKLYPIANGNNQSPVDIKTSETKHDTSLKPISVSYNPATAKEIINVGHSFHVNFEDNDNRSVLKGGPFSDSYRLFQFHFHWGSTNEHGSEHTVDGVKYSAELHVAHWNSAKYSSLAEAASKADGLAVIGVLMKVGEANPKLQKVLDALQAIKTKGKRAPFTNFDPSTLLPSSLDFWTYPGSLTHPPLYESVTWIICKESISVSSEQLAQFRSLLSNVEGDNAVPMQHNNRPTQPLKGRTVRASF
Sequence of Carbonic anhydrase 12 (O43570 whole entry): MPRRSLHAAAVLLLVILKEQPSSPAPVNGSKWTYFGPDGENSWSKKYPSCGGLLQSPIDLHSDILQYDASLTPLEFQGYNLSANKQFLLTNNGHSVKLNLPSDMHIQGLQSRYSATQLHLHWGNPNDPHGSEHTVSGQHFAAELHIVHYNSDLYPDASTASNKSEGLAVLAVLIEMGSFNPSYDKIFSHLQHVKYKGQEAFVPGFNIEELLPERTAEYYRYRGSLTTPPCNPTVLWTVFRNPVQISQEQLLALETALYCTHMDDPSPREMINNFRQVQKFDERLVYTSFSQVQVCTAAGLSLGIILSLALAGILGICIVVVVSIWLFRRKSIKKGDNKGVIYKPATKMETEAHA

Take `C/C(=N\NC(N)=S)c1nnn(-c2ccc(C(=O)O)cc2)c1C`: the figures for the half-inhibitory concentration (IC50) (in experiment [1]; in the experiment on WI-38; in [2]) were 11.6 µM, 480 µM and 1.65 µM, respectively. The Ki on Carbonic anhydrase 1, on Carbonic anhydrase 12 and on Carbonic anhydrase 9 was above 100 µM in each case. Further, the inhibition result with A549 and in the experiment with HepG2 was “inactive” each time. In the experiment on MCF7, the inhibition – broadly, the percentage by which the read-out fell short of the control – at 100 µM amounted to 46.6%.

Take `CC(=O)c1nnn(-c2ccc(F)cc2)c1C`: the IC50 (as a rule, the concentration that gives 50% inhibition) was determined as 7.3 µM in experiment [1] and 4.75 µM in experiment [2].

With `C/C(=N\Nc1nc(-c2ccc(Cl)cc2)cs1)c1nnn(-c2ccc(F)cc2)c1C`, the values for the half-inhibitory concentration (IC50) (in experiment [1]; with WI-38; in experiment [2]) were 11.9 µM, 414 µM and 1.83 µM, respectively. The figures for the inhibition at 100 µM in the experiment on A549, with HepG2 and in the experiment on MCF7 were 11.9%, 20.7% and 33.5%, respectively.

In the case of `C/C(=N\NC(N)=O)c1nnn(-c2ccc(S(=O)(=O)Nc3nccs3)cc2)c1C`, the figures for the IC50 in [1] and in experiment [2] were 7.9 µM and 6.52 µM, respectively. The Ki (usually the equilibrium dissociation constant of an inhibitor or competing ligand from its target) on Carbonic anhydrase 1 was 46.3 µM; at Carbonic anhydrase 12 it was above 100 µM; at Carbonic anhydrase 9, above 100 µM; on Carbonic anhydrase 2 it was 6.86 µM.

On to `CC(=O)c1nnn(-c2ccc(S(N)(=O)=O)cc2)c1C`, for which the 50% inhibitory concentration (IC50) in experiment [1] was 7.6 µM; with WI-38, 391 µM; in [2] it was 3.65 µM. For the same molecule, the inhibitory constant (Ki) at Carbonic anhydrase 1 worked out at 0.073 µM; at Carbonic anhydrase 12, 0.0826 µM; on Carbonic anhydrase 9, 9.12 µM; at Carbonic anhydrase 2, 0.0079 µM. Moreover, the inhibition result in the experiment on A549 was “inactive”. Further, the inhibition at 100 µM with HepG2 amounted to 3.61%; in the experiment with MCF7, 17.7%.

`O=c1c(O)c(-c2ccc(O)c(O)c2)oc2cc(O)cc(O)c12` [QUERCETIN]: the IC50 in [2] is 3.34 µM.

As to `CC(=O)c1nnn(-c2ccc(Cl)cc2)c1C`, the IC50 in experiment [1] was determined as 7.9 µM; in [2], 3.65 µM.

For `C/C(=N\NC(N)=O)c1nnn(-c2ccc(Cl)cc2)c1C`, the IC50 is 5.6 µM in [1] and 6.84 µM in experiment [2].

As to `C/C(=N\NC(N)=S)c1nnn(-c2ccc(S(N)(=O)=O)cc2)c1C`, the IC50 in [1] was 13 µM; in the experiment with WI-38 it was 378 µM; in experiment [2], 1.51 µM. Further, the Ki on Carbonic anhydrase 1 stood at 0.0835 µM; at Carbonic anhydrase 12, 0.0153 µM; on Carbonic anhydrase 9, 7.27 µM. In addition, the inhibition at 100 µM is 3.88% in the experiment with A549 and 36.1% in the experiment on MCF7. Besides, the inhibition result in the experiment with HepG2 was “inactive”.

On to `CC(=O)c1nnn(-c2ccc(C(=O)O)cc2)c1C`, for which the IC50 in experiment [1] stood at 6.4 µM; in experiment [2], 5.14 µM.

For `CC(=O)c1nnn(-c2ccc(S(=O)(=O)Nc3nccs3)cc2)c1C`, the IC50 in [1] is 5.8 µM; in experiment [2], 4.72 µM. Besides, the Ki is 51 µM at Carbonic anhydrase 1, above 100 µM on Carbonic anhydrase 12 and above 100 µM at Carbonic anhydrase 9.

Consider `C/C(=N\NC(N)=O)c1nnn(-c2ccc(F)cc2)c1C`, for which the figures for the concentration for half-maximal inhibition (IC50) in [1] and in experiment [2] were 8.4 µM and 4.72 µM, respectively.

`C/C(=N\NC(N)=S)c1nnn(-c2ccc(S(=O)(=O)Nc3nccs3)cc2)c1C`: the IC50 was 10.3 µM in [1], 458 µM in the experiment on WI-38 and 1.69 µM in [2]. The inhibition constant (Ki) on Carbonic anhydrase 1, on Carbonic anhydrase 12 and at Carbonic anhydrase 9 was above 100 µM throughout. Moreover, the inhibition at 100 µM in the experiment with A549 was 11.3%; with HepG2, 22.1%; with MCF7, 20.7%.

For `C/C(=N\NC(N)=O)c1nnn(-c2ccc(C(=O)O)cc2)c1C`, the half-inhibitory concentration (IC50) was found to be 6.9 µM in [1] and 4.51 µM in [2].

Regarding `C/C(=N\NC(N)=S)c1nnn(-c2ccc(Cl)cc2)c1C`, the IC50 is 7.9 µM in [1] and 5.33 µM in [2].

Values taken from ChEMBL document CHEMBL4765344, “Expanding the anticancer potential of 1,2,3-triazoles via simultaneously targeting Cyclooxygenase-2, 15-lipoxygenase and tumor-associated carbonic anhydrases” (Eur J Med Chem, 2020).
